Consider 18 molecules from US20250326748A1, “COMPOUNDS AND METHODS FOR MODULATING SPLICING” (REMIX THERAPEUTICS INC., priority 2022, published 2025).

Holding throughout (format): cell-based, human
One assay concerns MYB mRNA. Briefly: Splicing RT-qPCR assay, MYB canonical (CJ) and alternative (AJ) junction mRNA. Particulars: Homo sapiens; for pIC50: canonical junction mRNA; for AC50: alternative junction mRNA, read-out: MYB AJ (AC50, increase in AJ mRNA). The essentials:
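Treatment of A673 or K562 cultures with compounds (eleven-point titration, highest final 10 uM, ≤0.25% DMSO) ran one day at 37 °C. Afterwards cells were lysed directly in the well, and cDNA synthesis coupled with qPCR measured CJ and AJ isoform levels against a reference transcript.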
(Quantitative PCR measures a nucleic acid by following its amplification.)

A further assay deals with SMN2 mRNA. Briefly: Splicing RT-qPCR panel, SMN2 canonical junction (CJ) mRNA. Particulars: Homo sapiens, read-out: SMN2 CJ (decrease in CJ mRNA levels, IC50). The essentials: (§1)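 A673 cells (DMEM, 10% FBS) or K562 cells (IMDM, 10% FBS) treated 24 h at 37 °C with an 11-point 3-fold dilution, top 10 uM, DMSO ≤0.25%. Canonical-junction mRNA quantified in lysates by RT-qPCR, normalised to GAPDH, GUSB or PPIA and to DMSO (2^−ΔΔCt), then converted to % response.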

The subject of another assay is Target C mRNA. Briefly: Splicing RT-qPCR panel, Target C canonical junction (CJ) mRNA. Particulars: read-out: Target C CJ (decrease in CJ mRNA levels, IC50). Put shortly:
as §1

The mark [1] stands for this setting: qPCR panel, read-out: MYB CJ (decrease in CJ mRNA levels, IC50).
[2] abbreviates: RT-qPCR, A673 or K562 cells, 24 hours treatment.
The mark [3] stands for this setting: RT-qPCR, A673 or K562 cells, 24 hours treatment, read-out: MYB CJ (IC50, decrease in CJ mRNA).

pIC50: −log10 of the molar value. Where a name gives a salt, the structure may show the parent alone. Read-outs that look alike come from different tables or passages of the source.

The term pIC50 denotes −log10 of the IC50, conventionally taken in molar units. By AC50 is commonly meant the midpoint of the concentration-response curve, whichever way the signal moves.

On to `CN[C@@H]1CN(c2cnc3nc(-c4cc5cn(C)nc5c(C)c4O)ccc3c2)C[C@@H]1F` [Compound 132, 5-{6-[(3S,4R)-3-fluoro-4-(methylamino)pyrrolidin-1-yl]-1,8-naphthyridin-2-yl}-2,7-dimethylindazol-6-ol], for which the negative-log IC50 (pIC50) in the assay on MYB mRNA (setting [1]) was 6.00 to 7.00; with MYB mRNA (setting [3]) it was 6.00 to 7.00; in the assay with SMN2 mRNA, more than 7.00; with Target C mRNA (Homo sapiens), 6.00 to 7.00. Further, the half-maximal activity concentration (AC50) in the assay with MYB mRNA (setting [2]) is less than 100 nM.

Regarding `Cn1cc2cc(-c3cnc4nc(N5CCC(NC(C)(C)C)C5)ccc4c3)c(O)cc2n1` (stereo not drawn) [Compound 133, 5-{7-[3-(tert-butylamino)pyrrolidin-1-yl]-1,8-naphthyridin-3-yl}-2-methylindazol-6-ol], the pIC50 in the assay on MYB mRNA (setting [1]), with MYB mRNA (setting [3]), in the assay on SMN2 mRNA and with Target C mRNA (Homo sapiens) was less than 5.00 each time. Also, in the assay on MYB mRNA (setting [2]), the concentration at half-maximal activity (AC50) was more than 10000 nM.

In the case of `Cn1cc2cc(-c3ccc4cc(N5CCC(NC(C)(C)C)C5)cnc4n3)c(O)cc2n1` (stereo not drawn) [Compound 134, 5-{6-[3-(tert-butylamino)pyrrolidin-1-yl]-1,8-naphthyridin-2-yl}-2-methylindazol-6-ol hydrochloride], the negative logarithm of the IC50 (pIC50) in the assay on MYB mRNA (setting [1]) is 6.00 to 7.00; in the assay on MYB mRNA (setting [3]) it was 6.00 to 7.00; in the assay on SMN2 mRNA, more than 7.00; in the assay with Target C mRNA (Homo sapiens), 6.00 to 7.00. Besides, the half-maximal activity concentration (AC50) with MYB mRNA (setting [2]) fell in the range of 100 to 1000 nM.

For the molecule `Cn1cc2cc(-c3ccc4cc(N5CC[C@@H](NCC6CC6)C5)cnc4n3)c(O)c(F)c2n1` [Compound 135, 5-{6-[(3R)-3-[(cyclopropylmethyl)amino]330pyrrolidine-1-yl]-1,8-naphthyridin-2-yl}-7-fluoro-2-methylindazol-6-ol], the pIC50 is more than 7.00 in the assay with MYB mRNA (setting [1]), more than 7.00 in the assay on MYB mRNA (setting [3]), more than 7.00 in the assay on SMN2 mRNA and 6.00 to 7.00 in the assay with Target C mRNA (Homo sapiens). Further, in the assay with MYB mRNA (setting [2]), the half-maximal activity concentration (AC50) was less than 100 nM.

In the case of `Cn1cc2cc(-c3ccc4cc(N5CC[C@H](NCC6CC6)C5)cnc4n3)c(O)c(F)c2n1` [Compound 136, 5-{6-[(3S)-3-[(cyclopropylmethyl)amino]326pyrrolidine-1-yl]-1,8-naphthyridin-2-yl}-7-fluoro-2-methylindazol-6-ol], the pIC50 was 6.00 to 7.00 in the assay with MYB mRNA (setting [1]), 6.00 to 7.00 with MYB mRNA (setting [3]), more than 7.00 in the assay with SMN2 mRNA and 5.00 to 6.00 in the assay on Target C mRNA (Homo sapiens). The AC50 in the assay with MYB mRNA (setting [2]) is less than 100 nM.

On to `Cc1c(O)c(-c2ccc3cc(N4CCNCC4)cnc3n2)cc2cn(C)nc12` [Compound 137, 2,7-dimethyl-5-[6-(piperazin-1-yl)-1,8-naphthyridin-2-yl]indazol-6-ol], for which the pIC50 was more than 7.00 with MYB mRNA (setting [1]), more than 7.00 with MYB mRNA (setting [3]), more than 7.00 in the assay on SMN2 mRNA and 6.00 to 7.00 in the assay with Target C mRNA (Homo sapiens). The AC50 in the assay on MYB mRNA (setting [2]) was less than 100 nM.

Take `Cc1c(O)c(-c2ccc3cc(N4CCC(N(C)C)CC4)cnc3n2)cc2cn(C)nc12` [Compound 138, 5-{6-[4-(dimethylamino)piperidin-1-yl]-1,8-naphthyridin-2-yl}-2,7-dimethylindazol-6-ol]: the pIC50 with MYB mRNA (setting [1]) is 6.00 to 7.00; in the assay on MYB mRNA (setting [3]), 6.00 to 7.00; in the assay on SMN2 mRNA, more than 7.00; in the assay on Target C mRNA (Homo sapiens) it was 5.00 to 6.00. Also, the AC50 with MYB mRNA (setting [2]) fell in the range of 100 to 1000 nM.

In the case of `CNC1CCN(c2cnc3nc(-c4cc5cn(C)nc5c(C)c4O)cc(Cl)c3c2)C1` (stereo not drawn) [Compound 142, 5-{4-chloro-6-[3-(methylamino)351pyrrolidine-1-yl]-1,8-naphthyridin-2-yl}-2,7-dimethylindazol-6-ol], the pIC50 with MYB mRNA (setting [1]) is more than 7.00; in the assay on MYB mRNA (setting [3]), more than 7.00; with SMN2 mRNA, more than 7.00; with Target C mRNA (Homo sapiens), 6.00 to 7.00. In addition, in the assay with MYB mRNA (setting [2]), the AC50 was less than 100 nM.

Take `Cc1c(O)c(-c2cc(Cl)c3cc(N4CCC(N(C)C)C4)cnc3n2)cc2cn(C)nc12` (stereo not drawn) [Compound 143, 5-{4-chloro-6-[3-(dimethylamino)357pyrrolidine-1-yl]-1,8-naphthyridin-2-yl}-2,7-dimethylindazol-6-ol]: the pIC50 in the assay with MYB mRNA (setting [1]) was more than 7.00; with MYB mRNA (setting [3]), more than 7.00; in the assay on SMN2 mRNA, more than 7.00; in the assay with Target C mRNA (Homo sapiens) it was 6.00 to 7.00. In the assay with MYB mRNA (setting [2]), the AC50 is less than 100 nM.

On to `Cc1c(O)c(-c2cc(C3CC3)c3cc(N4CCNCC4)cnc3n2)cc2cn(C)nc12` [Compound 144, 5-(4-cyclopropyl-6-(piperazin-1-yl)-1,8-naphthyridin-2-yl)-2,7-dimethyl-2H-indazol-6-ol bis(2,2,2-trifluoroacetate)], for which the pIC50 was 6.00 to 7.00 in the assay on MYB mRNA (setting [1]), 6.00 to 7.00 in the assay on MYB mRNA (setting [3]), more than 7.00 with SMN2 mRNA and 5.00 to 6.00 in the assay with Target C mRNA (Homo sapiens). In addition, the AC50 in the assay on MYB mRNA (setting [2]) is 100 to 1000 nM.

Take `Cc1c(O)c(-c2cc(Cl)c3cc(NC4CCNC4)cnc3n2)cc2cn(C)nc12` (stereo not drawn) [Compound 146, 5-[4-chloro-6-(359pyrrolidine-3-ylamino)-1,8-naphthyridin-2-yl]-2,7-dimethylindazol-6-ol]: the negative logarithm of the IC50 (pIC50) in the assay with MYB mRNA (setting [1]) was 6.00 to 7.00; in the assay on MYB mRNA (setting [3]), 6.00 to 7.00; with SMN2 mRNA it was more than 7.00; in the assay with Target C mRNA (Homo sapiens), 5.00 to 6.00. Besides, in the assay with MYB mRNA (setting [2]), the AC50 is less than 100 nM.

With `Cc1c(O)c(-c2cc(Cl)c3cc(N4CCNC(C)C4)cnc3n2)cc2cn(C)nc12` (stereo not drawn) [Compound 147], the negative-log IC50 (pIC50) in the assay on MYB mRNA (setting [1]) is 6.00 to 7.00; with MYB mRNA (setting [3]), 6.00 to 7.00; in the assay with SMN2 mRNA it was more than 7.00; with Target C mRNA (Homo sapiens) it was 5.00 to 6.00. The AC50 with MYB mRNA (setting [2]) is 100 to 1000 nM.

On to `Cc1c(O)c(-c2cc(Cl)c3cc(N4C[C@@H](C)N[C@@H](C)C4)cnc3n2)cc2cn(C)nc12` [Compound 149], for which the negative logarithm of the IC50 (pIC50) with MYB mRNA (setting [1]) is more than 7.00; with MYB mRNA (setting [3]), more than 7.00; in the assay with SMN2 mRNA, more than 7.00; in the assay on Target C mRNA it was 5.00 to 6.00. Moreover, in the assay on MYB mRNA (setting [2]), the AC50 was less than 100 nM.

In the case of `CNC(=O)c1cc(-c2cc3cn(C)nc3c(C)c2O)nc2ncc(N3CCNCC3)cc12` [Compound 150, 2-(6-hydroxy-2,7-dimethylindazol-5-yl)-N-methyl-6-(piperazin-1-yl)-1,8-naphthyridine-4-carboxamide], the pIC50 in the assay with MYB mRNA (setting [1]) was less than 5.00; in the assay on MYB mRNA (setting [3]), less than 5.00; with SMN2 mRNA, 5.00 to 6.00; in the assay with Target C mRNA (Homo sapiens) it was less than 5.00. Further, in the assay on MYB mRNA (setting [2]), the half-maximal activity concentration (AC50) was more than 10000 nM.

Consider `Cc1cc(-c2cc3cn(C)nc3c(C)c2O)nc2ncc(N3CCNCC3)cc12` [Compound 151, 2,7-dimethyl-5-[4-methyl-6-(piperazin-1-yl)-1,8-naphthyridin-2-yl]indazol-6-ol], for which the negative-log IC50 (pIC50) in the assay with MYB mRNA (setting [1]) was more than 7.00; in the assay on MYB mRNA (setting [3]), more than 7.00; with SMN2 mRNA, more than 7.00; in the assay with Target C mRNA (Homo sapiens), 5.00 to 6.00. For the same molecule, the concentration at half-maximal activity (AC50) in the assay with MYB mRNA (setting [2]) is less than 100 nM.

Consider `Cc1cn2cc(-c3cc(Cl)c4cc(N5CCNCC5)cnc4n3)cc(F)c2n1` [Compound 153, 4-chloro-2-{8-fluoro-2-methylimidazo[1,2-a]pyridin-6-yl}-6-(piperazin-1-yl)-1,8-naphthyridine], for which the pIC50 in the assay on MYB mRNA (setting [1]) is 6.00 to 7.00; with MYB mRNA (setting [3]), 6.00 to 7.00; in the assay with SMN2 mRNA, more than 7.00; in the assay with Target C mRNA (Homo sapiens) it was 5.00 to 6.00. In addition, in the assay on MYB mRNA (setting [2]), the AC50 is less than 100 nM.

For `CN[C@H]1CCN(c2cnc3nc(-c4cc5cn(C)nc5c(F)c4O)cc(Cl)c3c2)C1` [Compound 272], the pIC50 in the assay with MYB mRNA (setting [1]) is more than 7.00; in the assay on MYB mRNA (setting [3]), more than 7.00; in the assay on SMN2 mRNA, more than 7.00; with Target C mRNA (Homo sapiens) it was 6.00 to 7.00. The concentration at half-maximal activity (AC50) with MYB mRNA (setting [2]) was less than 100 nM.

Turning to `Cn1cc2cc(-c3cc(Cl)c4cc(N5CCNC6(CC6)C5)cnc4n3)c(O)c(F)c2n1` [Compound 274], the negative-log IC50 (pIC50) in the assay on MYB mRNA (setting [1]) was more than 7.00; with MYB mRNA (setting [3]) it was more than 7.00; with SMN2 mRNA, more than 7.00; in the assay on Target C mRNA (Homo sapiens) it was 5.00 to 6.00. Also, the AC50 with MYB mRNA (setting [2]) is less than 100 nM.
